From patent publication EP0738149B1 (priority 1994, dated 1995) come the findings set out here.

For data set [1], the system named is rats. In words: Maximal electroshock (MES) model in rats, p.o.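 Note: rat MES model gauging antiepileptic efficacy versus generalized and partial seizures after oral dosing.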 It counts as in vivo. The following applies: Rattus norvegicus, po, Table 15. On the technique in general: In the maximal electroshock model the usual endpoint is tonic extension of the hind limbs.
Data set [2] can be described thus: Neurotoxicity in rats (positional sense test and gait stance test), p.o. To be noted: rat, in vivo, po. As to the method:
(§1) Neurotoxicity of the claimed agents was also assessed in mice (i.p. administration) by the rotorod ataxia test and/or in rats (p.o. administration) by positional sense test and gait stance test. […] The term quantitating the neurotoxicity is the medial neurological toxic dose (TD50), was determined in the above tests.

Data set [3] relates to rats. The data set is described as above. The following applies: rats, p.o.; Table 16. As for the experimental part:
as §1

Data set [4] relates to mice. In words: Maximal electroshock (MES) model in mice, i.p.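 Note: Electroshock-induced convulsion model serving to demonstrate antiepileptic efficacy against generalized and partial seizures.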 To be noted: Mus musculus, ip, Table 15. It counts as in vivo.
Data set [5] has as its system mice. In words: in vivo. The following applies: mouse, in vivo, ip. As to the method:
as §1

The nature of data set [6]: in vivo. To be noted: mouse, in vivo, ip, MICE TD50. As to the method:
as §1

The subject of data set [7] is rats. The following applies: Rattus norvegicus, po, read-out: RATS scMet ED50.
The test system of data set [8] is mice. To be noted: Mus musculus, ip.
The mark [9] stands for this setting: rats, p.o., read-out: RATS MES 50.
[10] abbreviates: read-out: MICE scMet ED50, mice, i.p., Table 16.

Like-named read-outs stand apart in the source and are kept apart here.

Consider `COc1ccc2c(c1OC)CC[C@H]2NC(C)=O` [Example 21, (R)-4,5-Dimethoxy-N-acetyl-1-aminoindan], for which the ED50 was 21 mg/kg in data set [1] (setting [9]), 40 mg/kg in data set [4], greater than 250 mg/kg in data set [7] and 150 mg/kg in data set [8] (setting [10]). The TD50 in data set [2] is greater than 500 mg/kg; in data set [6], 137 mg/kg. Also, in data set [3], the “RATS TD50” value is greater than 500 mg/kg. Besides, the “MICE TD50” value in data set [5] stood at 137 mg/kg.

As for `CC(=O)N[C@@H]1CCc2ccc(F)cc21` [Example 23, (R)-6-Fluoro-N-acetyl-1-aminoindan], the ED50 is 25 mg/kg in data set [1] (setting [9]), 65 mg/kg in data set [4], greater than 250 mg/kg in data set [7] and 155 mg/kg in data set [8] (setting [10]). In addition, the TD50 in data set [2] is greater than 500 mg/kg; in data set [6], 155 mg/kg. For the same molecule, in data set [3], the “RATS TD50” value was greater than 500 mg/kg. Moreover, the “MICE TD50” value in data set [5] is 155 mg/kg.

Take `C#CCN[C@H]1CCc2ccccc21.Cl` [G, (S)-N-propargyl-1-aminoindan HCl salt]: the ED50 is 57 mg/kg in data set [1] (read-out: RATS MES 50, rats, p.o.); 57 mg/kg in data set [4]; greater than 250 mg/kg in data set [7]; greater than 250 mg/kg in data set [8] (read-out: MICE scMet ED50).
